Measured values as given in paper PMC12549899 (Nature Communications, 2025).
Several values for one entry are separate records, joined by “and”; a condition that tells them apart may be missing. Identical values can stand only once. Like-named read-outs stand apart in the source and are kept apart here.

Target: T1, DrOTOP1 (Danio rerio, UniProt Q7ZWK8)
T1 construct: A previously generated codon-optimized full-length DrOTOP1[8]; (UniProt: Q7ZWK8) construct; expressed in transfected cells; host or cells: HEK-293 (CRL-1573, ATCC)
T1 sequence (Q7ZWK8 1-586): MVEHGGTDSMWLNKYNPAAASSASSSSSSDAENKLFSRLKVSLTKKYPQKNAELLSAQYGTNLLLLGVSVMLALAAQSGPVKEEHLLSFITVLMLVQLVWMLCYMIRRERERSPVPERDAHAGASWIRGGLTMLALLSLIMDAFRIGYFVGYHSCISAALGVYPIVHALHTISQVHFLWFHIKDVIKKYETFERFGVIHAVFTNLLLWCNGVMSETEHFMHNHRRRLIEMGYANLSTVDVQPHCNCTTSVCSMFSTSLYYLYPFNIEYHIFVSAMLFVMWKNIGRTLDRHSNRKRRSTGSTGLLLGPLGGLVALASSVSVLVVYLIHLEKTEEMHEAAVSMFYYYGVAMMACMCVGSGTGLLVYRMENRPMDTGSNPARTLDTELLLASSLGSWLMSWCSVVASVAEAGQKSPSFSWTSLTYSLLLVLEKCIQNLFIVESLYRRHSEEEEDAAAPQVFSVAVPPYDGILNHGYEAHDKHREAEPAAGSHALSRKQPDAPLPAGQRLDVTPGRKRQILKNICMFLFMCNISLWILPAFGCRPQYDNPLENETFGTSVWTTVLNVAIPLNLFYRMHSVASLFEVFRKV
Assay: Whole-cell patch-clamp, inhibition of acid-evoked currents, WT DrOTOP1 expressed in HEK-293 cells
Type: cell-based, zebrafish (Danio rerio)
Set-up: key to inhibition of acid-evoked current, mean (Mean 1): % inhibition = ((I2peak-I1)/I2peak)*100
Conditions: for inhibition at 200 µM: read-out: Inhibition of currents
From the text: The 50 molecules identified were individually tested by whole-cell patch-clamp electrophysiology for effects on DrOTOP1 expressed in human embryonic kidney (HEK)−293 cells. […] This approach enabled us to observe the on- and off-responses of each compound. To quantify the effect of each compound, we compared the current magnitude during compound application immediately before wash-off, to the peak inward current following its removal (Supplementary Fig. 2A).
HEK-293 cells (CRL-1573, ATCC) were cultured in DMEM (Thermofisher 11995073) containing 10% fetal bovine serum (Life Technology 16000044) and Penicillin-Streptomycin (100 I.U./mL) and (100 µg/mL), respectively. Cells were transfected with WT DrOTOP1 or mutant DrOTOP1 channels in 35 mm petri dishes, with ~ 500 ng DNA and 2 μL TransIT-LT1 transfection reagent (Mirus Bio Corporation, Cat # MIR2300) following the manufacturer’s protocol. All constructs were subcloned into a pcDNA3.1 vector that adds an N-terminal fusion tag consisting of an octahistidine tag followed by eGFP, a Gly-Thr-Gly-Thr linker and a 3C protease cleavage site ([…]) followed by WT DrOTOP1, WT mOTOP1, WT hOTOP1, or mutated DrOTOP1. Point mutations were generated via In-Fusion Cloning (Takara) using single-stranded DNA primers generated through IDT and sequence confirmed by Sanger sequencing (GeneWiz).
Whole-cell patch-clamp recording was performed as previously described[6],[22],[25]. Recordings were made with an Axopatch 200B amplifier, digitized with a Digidata 1322a 16-bit data acquisition system, acquired with pClamp 8.2 and analyzed with Clampfit 10 (Molecular Devices). Recordings were sampled at 5 kHz and filtered at 1 kHz. Patch Pipettes with resistance of […] were fabricated from borosilicate glass, and only recordings with a giga-Ohm seal were used in analysis. Membrane potential was held at −80 mV for the duration of recordings. At the beginning of recordings and between, cells were washed with Tyrode’s solution (see below). Once a giga-Ohm seal was reached, cells were lifted and placed in front of microcapillary tubes controlled by a Fast-Step perfusion system (Warner Instruments) so that extracellular solutions could be rapidly exchanged during each experiment.
Standard Tyrode’s solution consisted of 145 mM NaCl, 5 mM KCl, MgCl2, 2 mM CaCl2, 20 mM D-Glucose, and 10 mM HEPES (for pH 7.4). All other extracellular patch-clamp solutions contained 160 mM NMDG-Cl, 2 mM CaCl2, and the following buffers: 10 mM HEPES (for pH 7.4), 10 mM MES (for pH 6.5-5.5), 10 mM CHES for pH 10, and 10 mM HomoPIPES for (pH 5.0). pH adjusted with HCl. […] The pipette contained intracellular solution made up of 120 mM Cs-aspartate, 15 mM CsCl, 2 mM Mg-ATP, 5 mM EGTA, 2.4 mM CaCl2 (100 nM free Ca^2+), and 10 mM HEPES with a pH of 7.3. All extracellular solution osmolarity was adjusted to 300 mOsm and intracellular osmolarity was adjusted to 290 mOsm.
All data are presented as mean ± SEM unless otherwise noted, and each data point represents an independent replicant. Inhibition of compounds was quantified as ((I2peak-I1)/(I2peak))*100, where I1 is the current immediately before wash-off and I2peak is the maximum recovered current (Supplementary Fig. 2). Hill coefficients were determined by the following equation: Y = Bmax*X^h/(Kd^h + X^h).

[1] = 10 µM, pH 5, WT DrOTOP1, single cells
[2] = 10 µM, pH 6, WT DrOTOP1, single cells
[3] = 30 µM, pH 5, WT DrOTOP1, single cells
[4] = 30 µM, pH 6, WT DrOTOP1, single cells
[5] = 100 µM, pH 5, WT DrOTOP1, single cells
[6] = 100 µM, pH 6, WT DrOTOP1, single cells
[7] = 200 µM, pH 5.5, WT DrOTOP1, dose-response, single cells
[8] = 300 µM, pH 5.5, WT DrOTOP1, single cells
[9] = HEK293, pH 5, 30 µM, pH 5, WT DrOTOP1, single cells
[10] = HEK293, pH 5.5, 200 µM, pH 5.5, WT DrOTOP1, dose-response, single cells
[11] = HEK293, pH 5.5, 300 µM, pH 5.5, WT DrOTOP1, single cells
[12] = HEK293, pH 6, 10 µM, pH 6, WT DrOTOP1, single cells
[13] = HEK293, pH 6, 30 µM, pH 6, WT DrOTOP1, single cells
[14] = HEK293, pH 6, 100 µM, pH 6, WT DrOTOP1, single cells

SMILES | Inhibition of currents [1] | Inhibition of currents [2] | Inhibition of currents [3] | Inhibition of currents [4] | Inhibition of currents [5] | Inhibition of currents [6] | Inhibition of currents [7] | Inhibition of currents [8] | inhibition at 30 µM [9] | inhibition at 200 µM [10] | inhibition at 300 µM [11] | inhibition at 10 µM [12] | inhibition at 30 µM [13] | inhibition at 100 µM [14] | Hill coefficient (pH 5.0, WT DrOTOP1) | IC50 (pH 5.0, WT DrOTOP1) | Hill coefficient (pH 5.5, WT DrOTOP1) | IC50 (pH 5.5, WT DrOTOP1) | Hill coefficient (pH 6.0, WT DrOTOP1) | IC50 (pH 6.0, WT DrOTOP1) | other results
C=C(C)COc1ccccc1NC(=O)c1nc[nH]c1C [C2.2] | 57.3692% and 44.5762% and 37.4476% and 30.9804% and 33.0274% | 62.6907% and 69.8462% and 72.5518% and 60.5453% | 79.1499% and 75.7339% and 78.9474% | 89.6104% and 92.0062% | 98.8642% and 100.372% | 101.656% and 100.935% and 99.4036% | 99.9505% and 99.4475% and 98.9119% | 99.8351% and 99.4122% and 98.63% | 79.1% | 100% | 99.9% | 62.3% | 80.7% | 100% | 1.53 | 12.6 µM | 1.52 and 1.5 | 6.67 µM | 1.25 | 5.99 µM and 5.97 µM | Inhibition of currents (0.1 µM, pH 5.5, WT DrOTOP1, single cells): 2.61% and 0.5081% and 0.05491%; Inhibition of currents (0.3 µM, pH 5.5, WT DrOTOP1, single cells): 3.209% and 3.843%; Inhibition of currents (1 µM, pH 5, WT DrOTOP1, single cells): 3.034% and 6.744% and 2.835%; Inhibition of currents (1 µM, pH 5.5, WT DrOTOP1, single cells): 3.496% and 5.882% and 11.0667%; Inhibition of currents (1 µM, pH 6, WT DrOTOP1, single cells): 7.93% and 17.0523% and 15.485%; Inhibition of currents (3 µM, pH 5.5, WT DrOTOP1, single cells): 21.7626% and 20.6603%; Inhibition of currents (30 µM, pH 5.5, WT DrOTOP1, single cells): 91.4446% and 86.3672% and 87.3001% and 85.4679%; Inhibition of pH 5.5-induced currents, screen 2 (200 µM compound, HEK-293 cells expressing DrOTOP1, Vm -80 mV, values of single cells, FDA 1-3 = FDA-approved drugs): fully blocked; inhibition at 100 µM (HEK293, pH 5, 100 µM, pH 5, WT DrOTOP1, single cells): 99.1%; inhibition at 0.3 µM (HEK293, pH 5.5, 0.3 µM, pH 5.5, WT DrOTOP1, single cells): 2.64%; inhibition at 3 µM (HEK293, pH 5.5, 3 µM, pH 5.5, WT DrOTOP1, single cells): 17%; inhibition at 30 µM (HEK293, pH 5.5, 30 µM, pH 5.5, WT DrOTOP1, single cells): 88.3%; inhibition at 100 µM (HEK293, pH 5.5, 100 µM, pH 5.5, WT DrOTOP1, single cells): 99.4%; Mean, Fig 5N (WT + C2.2, n=8): 31.97; inhibition of acid-evoked current, mean (Mean 1) (WT DrOTOP1, Supp. Fig 5E stats): 99.31; inhibition of acid-evoked current, mean (Mean 1) (WT DrOTOP1, Supp. Fig 5F stats): 65.72
O=C(/C(=N\O)c1ccccc1)c1ccccc1 [C11, benzil monoxime] | 4.424% and 3.103% | 7.181% and 5.566% and 5.627% | 24.2292% and 16.076% | 21.9002% and 19.6399% and 27.9569% | 50.6107% and 59.4827% and 56.6039% and 73.4375% | 58.9165% and 51.9948% and 54.7438% and 59.958% | 92.006% and 94.7798% and 86.5734% | 100.665% and 98.5727% and 97.2447% | 16.2% | 96.6% | 102% | 5.56% | 19% | 68.6% | 1.88 | 75.2 µM | 2.2 and 2.21 | 76 µM and 76.3 µM | 1.67 | 71.5 µM | Inhibition of currents (10 µM, pH 5.5, WT DrOTOP1, single cells or mean): 3.913% and 2.872% and 1.269% and 1.559%; Inhibition of pH 5.5-induced currents, screen 1 (200 µM compound, HEK-293 cells expressing DrOTOP1, Vm -80 mV, values of single cells): nearly fully inhibited; Inhibition of currents (200 µM, pH 5, WT DrOTOP1, single cells): 88.3451% and 83.853%; Inhibition of currents (200 µM, pH 6, WT DrOTOP1, single cells): 84.9844% and 81.9304% and 93.4599%; Inhibition of currents (300 µM, pH 5, WT DrOTOP1, single cells): 96.0707% and 96.7562%; Inhibition of currents (300 µM, pH 6, WT DrOTOP1, single cells): 97.5242% and 103.48%; inhibition at 10 µM (HEK293, pH 5, 10 µM, pH 5, WT DrOTOP1, single cells): 3.81%; inhibition at 200 µM (HEK293, pH 5, 200 µM, pH 5, WT DrOTOP1, single cells): 80.8%; inhibition at 300 µM (HEK293, pH 5, 300 µM, pH 5, WT DrOTOP1, single cells): 101%; inhibition at 200 µM (HEK293, pH 6, 200 µM, pH 6, WT DrOTOP1, single cells): 89.5%; inhibition at 300 µM (HEK293, pH 6, 300 µM, pH 6, WT DrOTOP1, single cells): 99.8%
